Test results: patent publication US12030878B2 (BRISTOL-MYERS SQUIBB COMPANY, priority 2017, dated 2024)

How the values were obtained:
Format in all cases: cell-based
[1] = target: T1, human TLR8 (Homo sapiens, UniProt Q9NR97); assay: TLR8 inhibition reporter assay (HEK-Blue SEAP); conditions: HEK-Blue cells overexpressing human TLR8, stimulated with R848 15.9 μM, 22 hour incubation
T1 construct: host or cells: HEK-Blue cells
T1 sequence (Q9NR97 27-1041): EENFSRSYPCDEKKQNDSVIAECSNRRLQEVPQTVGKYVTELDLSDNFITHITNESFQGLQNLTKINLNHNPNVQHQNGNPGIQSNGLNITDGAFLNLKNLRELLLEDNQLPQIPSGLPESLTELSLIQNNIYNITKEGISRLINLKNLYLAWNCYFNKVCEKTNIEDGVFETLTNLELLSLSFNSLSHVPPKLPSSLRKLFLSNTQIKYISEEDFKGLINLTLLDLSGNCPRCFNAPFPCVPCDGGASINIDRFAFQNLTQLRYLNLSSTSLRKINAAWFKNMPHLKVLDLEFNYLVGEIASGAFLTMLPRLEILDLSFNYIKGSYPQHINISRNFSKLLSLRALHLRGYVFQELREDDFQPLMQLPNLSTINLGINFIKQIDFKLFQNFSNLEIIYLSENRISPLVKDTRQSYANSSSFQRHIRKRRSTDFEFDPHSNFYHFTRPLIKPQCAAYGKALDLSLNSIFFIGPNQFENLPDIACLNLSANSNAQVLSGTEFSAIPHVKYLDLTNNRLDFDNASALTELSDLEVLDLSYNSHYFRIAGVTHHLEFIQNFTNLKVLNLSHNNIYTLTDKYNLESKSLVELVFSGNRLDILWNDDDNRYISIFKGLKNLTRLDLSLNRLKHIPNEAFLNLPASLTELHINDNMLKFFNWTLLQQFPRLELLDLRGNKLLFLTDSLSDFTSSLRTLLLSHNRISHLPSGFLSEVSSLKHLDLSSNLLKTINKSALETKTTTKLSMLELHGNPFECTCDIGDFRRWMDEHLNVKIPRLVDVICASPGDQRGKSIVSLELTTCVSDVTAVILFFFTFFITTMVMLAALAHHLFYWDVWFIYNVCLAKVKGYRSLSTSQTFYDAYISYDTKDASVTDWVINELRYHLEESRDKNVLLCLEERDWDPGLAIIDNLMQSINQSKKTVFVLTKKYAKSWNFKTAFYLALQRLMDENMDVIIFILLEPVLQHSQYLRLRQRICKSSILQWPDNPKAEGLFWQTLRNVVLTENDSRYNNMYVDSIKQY
Procedure, shortened: (§1)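 Stimulation followed a 30 min room-temperature compound exposure (final 0.05 nM-50 μM): TLR7 cells with 7.5 μM gardiquimod, TLR8 with 15.9 μM R848, TLR9 with 5 nM ODN2006. After 22 h at 37 °C, secreted alkaline phosphatase was detected colorimetrically and inhibition calculated against DMSO and known-inhibitor controls.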

[2] = target: T2, human TLR7 (Homo sapiens, UniProt Q9NYK1); assay: TLR7 inhibition reporter assay (HEK-Blue SEAP); conditions: HEK-Blue cells overexpressing human TLR7, stimulated with gardiquimod 7.5 μM, 22 hour incubation
T2 construct: host or cells: HEK-Blue cells
T2 sequence (Q9NYK1 27-1049): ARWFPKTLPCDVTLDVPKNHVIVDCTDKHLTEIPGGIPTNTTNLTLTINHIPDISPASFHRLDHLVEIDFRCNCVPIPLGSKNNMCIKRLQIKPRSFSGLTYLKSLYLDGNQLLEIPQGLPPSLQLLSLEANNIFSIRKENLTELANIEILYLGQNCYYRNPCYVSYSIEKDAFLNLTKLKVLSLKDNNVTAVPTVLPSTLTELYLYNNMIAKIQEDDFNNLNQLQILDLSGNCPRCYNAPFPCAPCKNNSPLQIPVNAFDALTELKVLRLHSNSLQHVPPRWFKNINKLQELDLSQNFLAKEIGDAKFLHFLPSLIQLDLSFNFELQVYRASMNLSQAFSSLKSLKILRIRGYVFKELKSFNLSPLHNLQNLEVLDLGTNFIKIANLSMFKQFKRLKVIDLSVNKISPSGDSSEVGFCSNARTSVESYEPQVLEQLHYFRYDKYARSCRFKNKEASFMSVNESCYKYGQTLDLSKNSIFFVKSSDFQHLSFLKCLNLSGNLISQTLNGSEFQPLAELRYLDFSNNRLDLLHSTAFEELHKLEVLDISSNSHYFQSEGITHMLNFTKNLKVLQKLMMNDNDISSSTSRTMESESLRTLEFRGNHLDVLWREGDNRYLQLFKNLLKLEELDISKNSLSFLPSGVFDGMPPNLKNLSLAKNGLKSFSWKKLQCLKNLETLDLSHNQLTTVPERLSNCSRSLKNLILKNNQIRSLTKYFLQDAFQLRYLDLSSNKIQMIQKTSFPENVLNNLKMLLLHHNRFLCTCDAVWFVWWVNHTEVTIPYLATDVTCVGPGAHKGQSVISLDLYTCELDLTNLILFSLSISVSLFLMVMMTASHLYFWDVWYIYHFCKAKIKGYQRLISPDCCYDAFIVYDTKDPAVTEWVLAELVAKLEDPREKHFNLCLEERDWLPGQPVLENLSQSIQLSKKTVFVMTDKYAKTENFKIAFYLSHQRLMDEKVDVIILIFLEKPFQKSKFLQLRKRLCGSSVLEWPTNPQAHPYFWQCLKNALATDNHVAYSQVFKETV
Procedure, shortened: as §1

[3] = target: T3, human TLR9 (Homo sapiens, UniProt Q9NR96); assay: TLR9 inhibition reporter assay (HEK-Blue SEAP); conditions: HEK-Blue cells overexpressing human TLR9, stimulated with ODN2006 5 nM, 22 hour incubation
T3 construct: host or cells: HEK-Blue cells
T3 sequence (Q9NR96 26-1032): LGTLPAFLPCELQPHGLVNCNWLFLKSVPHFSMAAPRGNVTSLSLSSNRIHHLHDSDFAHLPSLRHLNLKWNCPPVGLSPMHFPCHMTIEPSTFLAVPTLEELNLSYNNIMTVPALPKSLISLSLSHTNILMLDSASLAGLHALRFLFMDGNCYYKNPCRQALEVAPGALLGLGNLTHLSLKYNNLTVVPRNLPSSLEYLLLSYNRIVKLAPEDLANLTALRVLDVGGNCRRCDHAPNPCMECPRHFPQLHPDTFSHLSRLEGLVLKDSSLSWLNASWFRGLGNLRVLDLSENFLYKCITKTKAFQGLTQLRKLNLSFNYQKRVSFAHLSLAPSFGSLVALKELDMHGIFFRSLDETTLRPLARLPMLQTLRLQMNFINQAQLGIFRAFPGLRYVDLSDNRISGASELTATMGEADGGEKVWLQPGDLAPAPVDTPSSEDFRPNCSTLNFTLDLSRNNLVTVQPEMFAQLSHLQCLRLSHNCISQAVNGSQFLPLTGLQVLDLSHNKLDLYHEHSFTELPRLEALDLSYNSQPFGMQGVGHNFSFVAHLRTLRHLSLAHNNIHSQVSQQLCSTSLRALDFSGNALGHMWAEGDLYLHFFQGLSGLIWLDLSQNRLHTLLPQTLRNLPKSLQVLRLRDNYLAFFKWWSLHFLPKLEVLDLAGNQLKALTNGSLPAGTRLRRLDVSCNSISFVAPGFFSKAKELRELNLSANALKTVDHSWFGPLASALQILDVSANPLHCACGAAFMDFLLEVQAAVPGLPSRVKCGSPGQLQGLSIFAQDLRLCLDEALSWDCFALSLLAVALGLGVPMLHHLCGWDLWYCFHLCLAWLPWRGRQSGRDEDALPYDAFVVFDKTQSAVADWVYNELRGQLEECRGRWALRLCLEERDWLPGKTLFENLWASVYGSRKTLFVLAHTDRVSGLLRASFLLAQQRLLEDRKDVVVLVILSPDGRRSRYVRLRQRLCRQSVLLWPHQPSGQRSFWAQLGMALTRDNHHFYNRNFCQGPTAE
Procedure, shortened: as §1

IC50 [1] [nM] | IC50 [2] [nM] | IC50 [3] [nM] | SMILES
5 | 0.3 | 2570 | Cc1cc(-c2[nH]c3ccc(OCC4CCN(C(=O)CN(C)C)CC4)cc3c2C(C)C)cn2ncnc12 [Example 102, 2-(dimethylamino)-1-(4-(((3-isopropyl-2-(8-methyl-[1,2,4]triazolo[1,5-a]pyridin-6-yl)-1H-indol-5-yl)oxy)methyl)piperidin-1-yl)ethan-1-one]
14.9 | 12.3 | 5400 | Cc1c(-c2[nH]c3ccc(OCC4CCN(C(=O)CN(C)C)CC4)cc3c2C(C)C)cn(C)c(=O)c1C [Example 103, 5-(5-((1-(dimethylglycyl)piperidin-4-yl)methoxy)-3-isopropyl-1H-indol-2-yl)-1,3,4-trimethylpyridin-2(1H)-one]
16.2 | 7.8 | 5110 | Cc1c(-c2[nH]c3ccc(OC4CCN(C(=O)CN(C)C)CC4)cc3c2C(C)C)cn(C)c(=O)c1C [Example 104, 5-(5-((1-(dimethylglycyl)piperidin-4-yl)oxy)-3-isopropyl-1H-indol-2-yl)-1,3,4-trimethylpyridin-2(1H)-one]
50.2 | 2.9 | 1560 | Cc1c(-c2[nH]c3ccc(OC4CCN(C(=O)CN(C)C)CC4)cc3c2C(C)C)cn2cnnc2c1C [Example 105, 1-(4-((2-(7,8-dimethyl-[1,2,4]triazolo[4,3-a]pyridin-6-yl)-3-isopropyl-1H-indol-5-yl)oxy)piperidin-1-yl)-2-(dimethylamino)ethan-1-one]
57.8 | 4.6 | 2110 | Cc1c(-c2[nH]c3ccc(OCC4CCN(C(=O)CN(C)C)CC4)cc3c2C(C)C)cn2cnnc2c1C [Example 106, 1-(4-(((2-(7,8-dimethyl-[1,2,4]triazolo[4,3-a]pyridin-6-yl)-3-isopropyl-1H-indol-5-yl)oxy)methyl)piperidin-1-yl)-2-(dimethylamino)ethan-1-one]
9.4 | 0.6 | 3160 | Cc1cc(-c2[nH]c3ccc(OCC4CN(C(=O)CN(C)C)C4)cc3c2C(C)C)cn2ncnc12 [Example 107, 2-(dimethylamino)-1-(3-(((3-isopropyl-2-(8-methyl-[1,2,4]triazolo[1,5-a]pyridin-6-yl)-1H-indol-5-yl)oxy)methyl)azetidin-1-yl) ethan-1-one]
124 | 14.6 | 852 | Cc1c(-c2[nH]c3ccc(OCC4CN(C(=O)CN(C)C)C4)cc3c2C(C)C)cn2cnnc2c1C [Example 108, 1-(3-(((2-(7,8-dimethyl-[1,2,4]triazolo[4,3-a]pyridin-6-yl)-3-isopropyl-1H-indol-5-yl)oxy)methyl)azetidin-1-yl)-2-(dimethylamino) ethan-1-one]
10 | 1.9 | 300 | CNCC(=O)N1CCC(Oc2ccc3[nH]c(-c4cc(C)nc(C)c4)c(C(C)C)c3c2)CC1 [Example 109, 1-(4-((2-(2,6-dimethylpyridin-4-yl)-3-isopropyl-H-indol-5-yl)oxy)piperidin-1-yl)-2-(methylamino)ethanone]
7.3 | 9.6 | 492 | CNC(=O)CN1CCC(COc2ccc3[nH]c(-c4cc(C)nc(C)c4)c(C(C)C)c3c2)CC1 [Example 110, 2-(4-(((2-(2,6-dimethylpyridin-4-yl)-3-isopropyl-1H-indol-5-yl)oxy)methyl)piperidin-1-yl)-N-methylacetamide]
6.8 | 14.2 | 46800 | CNC(=O)CN1CCC(COc2ccc3[nH]c(-c4cc(C)c(=O)n(C)c4)c(C(C)C)c3c2)CC1 [Example 111, 2-(4-(((2-(1,5-dimethyl-6-oxo-1,6-dihydropyridin-3-yl)-3-isopropyl-1H-indol-5-yl)oxy)methyl)piperidin-1-yl)-N-methylacetamide]
8.9 | 10.2 | > 50000 | CNC(=O)CN1CCC(Oc2ccc3[nH]c(-c4cc(C)c(=O)n(C)c4)c(C(C)C)c3c2)CC1 [Example 112, 2-(4-((2-(1,5-dimethyl-6-oxo-1,6-dihydropyridin-3-yl)-3-isopropyl-1H-indol-5-yl)oxy)piperidin-1-yl)-N-methylacetamide]
7.6 | 1.4 | 6690 | CNC(=O)CN1CCC(COc2ccc3[nH]c(-c4cc(C)c5ncnn5c4)c(C(C)C)c3c2)CC1 [Example 113, 2-(4-(((3-isopropyl-2-(8-methyl-[1,2,4]triazolo[1,5-a]pyridin-6-yl)-1H-indol-5-yl)oxy)methyl)piperidin-1-yl)-N-methylacetamide]
5.1 | 1 | 31600 | CNC(=O)CN1CCC(Oc2ccc3[nH]c(-c4cc(C)c5ncnn5c4)c(C(C)C)c3c2)CC1 [Example 114, 2-(4-((3-isopropyl-2-(8-methyl-[1,2,4]triazolo[1,5-a]pyridin-6-yl)-1H-indol-5-yl)oxy)piperidin-1-yl)-N-methylacetamide]
